In one test the target is T1, NcAA9C (NcLPMO9C) (Neurospora crassa, UniProt Q7SHI8).
T1 construct: gene gh61-3; recombinant secreted in Komagataella phaffii, FPLC purified; copper enzyme, C4-acting
T1 sequence (Q7SHI8 17-359): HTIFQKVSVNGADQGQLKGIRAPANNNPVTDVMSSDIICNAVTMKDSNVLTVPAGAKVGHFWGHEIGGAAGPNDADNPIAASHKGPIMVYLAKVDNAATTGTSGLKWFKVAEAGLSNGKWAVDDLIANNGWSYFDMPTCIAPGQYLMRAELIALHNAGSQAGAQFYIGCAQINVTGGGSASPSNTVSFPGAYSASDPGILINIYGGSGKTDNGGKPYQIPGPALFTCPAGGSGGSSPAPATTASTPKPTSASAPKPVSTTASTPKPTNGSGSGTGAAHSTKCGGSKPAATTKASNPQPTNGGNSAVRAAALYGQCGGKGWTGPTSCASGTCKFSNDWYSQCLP
The experiment in a line: batch conversion, RDE H2O2 consumption, HPAEC-PAD and MALDI-TOF-MS of products. It is filed as biochemical. Particulars: H2O2 cosubstrate, 5 mM ascorbic acid, 30 mM sodium acetate pH 5.0, 100 mM KCl.

Test [1] concerns T2, FsCDH (class III cellobiose dehydrogenase).
T2 construct: gene CDH; flavocytochrome with cytochrome and dehydrogenase domains; recombinant secreted in Komagataella phaffii, FPLC purified
Put plainly: DCIP reduction, plate reader, Michaelis-Menten fit. It counts as biochemical, Fusarium solani. Particulars: 0.3 mM DCIP, 50 mM potassium phosphate pH 6.0. From the text: DCIP reduction, plate reader, Michaelis-Menten fit on FsCDH (class III cellobiose dehydrogenase)

On to `OC[C@H]1O[C@@H](O[C@H]2[C@H](O)[C@@H](O)[C@H](O[C@H]3[C@H](O)[C@@H](O)[C@H](O[C@H]4[C@H](O)[C@@H](O)[C@H](O[C@H]5[C@H](O)[C@@H](O)C(O)O[C@@H]5CO)O[C@@H]4CO)O[C@@H]3CO)O[C@@H]2CO)[C@H](O)[C@@H](O)[C@@H]1O` (stereo partly shown) [cellopentaose], for which the “batch conversion, RDE H2O2 consumption, HPAEC-PAD and MALDI-TOF-MS of products” value on NcAA9C (NcLPMO9C) is on record as “a batch reaction employing NcAA9C, H2O2 as cosubstrate”.

In the case of `OC[C@H]1OC(O)[C@H](O)[C@@H](O)[C@@H]1O[C@@H]1O[C@H](CO)C(O)(O)[C@H](O)[C@H]1O` (stereo partly shown) [Glc4gemGlc], in test [1] (sample not treated with β-glucosidase, 1 to 100 μM), the Michaelis-Menten constant (Km) was found to be 30.6 ± 8.3 µM.

For the compound `OC[C@H]1O[C@@H](O[C@H]2[C@H](O)[C@@H](O)[C@H](O[C@H]3[C@H](O)[C@@H](O)C(O)O[C@@H]3CO)O[C@@H]2CO)[C@H](O)[C@@H](O)[C@@H]1O` (stereo partly shown) [cellotriose], the Km in test [1] amounted to 16.1 ± 2.9 µM.

For the compound `OC[C@H]1O[C@@H](O[C@H]2[C@H](O)[C@@H](O)C(O)O[C@@H]2CO)[C@H](O)[C@@H](O)[C@@H]1O` (stereo partly shown) [cellobiose], the Km in test [1] amounted to 21.4 ± 3 µM.

The record behind these values is article PMC12485664, “Interaction of class III cellobiose dehydrogenase with lytic polysaccharide monooxygenase” (FEBS Open Bio, 2025).
